The results in this text go back to article PMC2980575 (Analytical biochemistry, 2010).

Experiment [1] deals with T1, HDAC8 (Homo sapiens, UniProt Q9BY41).
T1 sequence (Q9BY41 1-377): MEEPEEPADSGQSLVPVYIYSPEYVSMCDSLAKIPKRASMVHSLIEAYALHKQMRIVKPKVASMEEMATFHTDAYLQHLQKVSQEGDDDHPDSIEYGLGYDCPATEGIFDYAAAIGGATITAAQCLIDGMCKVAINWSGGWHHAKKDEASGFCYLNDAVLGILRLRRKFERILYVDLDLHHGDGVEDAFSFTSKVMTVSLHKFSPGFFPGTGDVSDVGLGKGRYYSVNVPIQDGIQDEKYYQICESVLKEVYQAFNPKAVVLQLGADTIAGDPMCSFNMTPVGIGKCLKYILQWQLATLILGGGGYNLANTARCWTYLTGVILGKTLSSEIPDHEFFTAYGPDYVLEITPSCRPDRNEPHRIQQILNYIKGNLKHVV
The experiment in a line: Trypsin-coupled steady-state kinetic assay with Fluor de Lys substrate. It counts as biochemical.

Experiment [2] addresses T1, HDAC8. The experiment in a line: Fluorescence displacement method with c-SAHA as probe, Dynafit analysis.
The target of experiment [3] is T1, HDAC8. As to the kind of experiment: Stopped-flow transient kinetics, c-SAHA as competitive ligand. It counts as binding. Particulars: pH 7.5, read-out: koff (dissociation off-rate).
The target in experiment [4] is T1, HDAC8. The experiment in a line: Direct fluorescence titration of c-SAHA with HDAC8. It counts as binding.

Compound `CN(C)c1ccc(C(=O)NCCCCCCC(=O)NO)cc1` [M344, 4-Dimethylamino-N-(6-hydroxycarbamoylhexyl)-benzamide] gave a Ki at HDAC8 [1] of 180 ± 20 nM. The compound further displayed a Kd on HDAC8 [2] of 320 ± 90 nM. Further, the koff at HDAC8 [3] is 1.05 ± 0.12 s⁻¹.
At HDAC8 [4], `Cc1cc(=O)oc2cc(NC(=O)CCCCCCC(=O)NO)ccc12` [c-SAHA, N^1-hydroxy-N^8-(4-methyl-2-oxo-2H-chromen-7-yl)octanediamide] displayed a Kd of 160 ± 20 nM. The affinity at HDAC8 [1], expressed as Ki, was 160 nM. The “Ki of c-SAHA lower than that of parent compound SAHA” value on HDAC8 [1] (steady-state kinetic data, c-SAHA versus SAHA) was “about 5 fold”.
